Measured values: paper PMC12476087, “Loading of Dicarboxylatoplatinum(II)‐NHC Complexes in Bacterial Ghosts as an Advanced Development in Cancer Therapy” (Archiv Der Pharmazie, 2025)

Assays:
Type in all cases: cell-based
[1] = tested on: surface calreticulin on A2780cis cells; assay: Immunofluorescent surface calreticulin staining, A2780cis; conditions: w/o BGs, 25 µM, 24 h
Method: (§1) Oxaliplatin, a known metal‐based ICD inducer, was included for comparison.
(§2) A2780wt or A2780cis cells were seeded at a density of 1.2 × 10^5 on cover slips and allowed to adhere for 24 h. […] Subsequently, the cells were washed again three times with PBS and they were incubated after adding the secondary antibody (Alexa‐Fluor‐conjugated anti‐rabbit, 1:200), for 45 min at rt. Subsequently, the cells were washed again three times with PBS and they were mounted on slides with mounting medium. After letting them dry overnight, visualization was performed by spinning disk confocal microscopy. […] Acquired images were background subtracted, individual cells were manually segmented, and fluorescence intensity for the calreticulin staining was quantified with a FIJI software. Two repetitions of the experiment were performed, where at least 20 cells per condition were analyzed and the mean intensity of each sample was calculated, respectively.

[2] = tested on: caspase‐3 in A2780wt cells; assay: Caspase‐3 activity assay (ApoTox‐Glo), A2780wt; conditions: w/o BGs, 25 µM, 24 h
Method: Furthermore, caspase‐3 activation serves as a primary hallmark of apoptosis. Therefore, we evaluated this induction with a luminescence‐based caspase‐3 activity assay on A2780wt cells.
The caspase‐3 assay was performed to investigate the induction of apoptosis by the compounds. It was performed by employing the commercially available ApoTox‐Glo Triplex Assay (Promega Corporation, Madison, USA), which specifically correlates cell viability and toxicity to apoptosis. In brief, A2780wt and A2780cis cells, respectively, were seeded at a density of 8 × 10^3 cells per well into an opaque‐walled 96‐well plate with solid bottoms. […] After incubation, 20 µL of the provided viability/toxicity reagent was added and incubated for further 30 min on an orbital shaker at 37°C. […] Then, 100 µL of Caspase‐Glo 3/7 reagent was added, gently shaken for 30 s and further incubated for 30 min. The caspase activation was determined via the measurement of the luminescence. Analysis was performed on the BioTek Synergy H1 (Agilent Technologies, Santa Clara, USA).

A2780wt cells [3] = assay: Comet assay (intracellular DNA damage); conditions: 50 µM, 48 h incubation
Method: Given that platinum‐based drugs are known to commonly induce DNA damage, a comet assay was conducted using A2780wt cells. This assay detects DNA damage such as DNA single/double strand breaks and DNA fragmentation, a common feature of apoptosis. […] DMF (0.1%)‐treated cells were used as a negative control to establish baseline DNA integrity.
Cellular DNA damage can be visualized by employing a comet assay, which is a single cell gel electrophoresis assay. Hereby, A2780wt cells were seeded at a density of 2 × 10^6 into 25 cm^2 flasks. After letting the cells adhere for 24 h in a humidified atmosphere, the cell culture medium was exchanged for medium containing the respective compound. The cells were then incubated for 48 h with the platinum complexes or 4 h with etoposide, respectively. After incubation, the cell growth was stopped by removing the compound‐containing medium, washing the cells with phosphate‐buffered saline (PBS) and detaching them with a rubber policeman. The detached cells were then centrifuged at 700g for 2 min and the resulting pellet was then washed with 5 mL of PBS. After that, the cells were adjusted to a concentration of 1 × 10^6 cells/mL and were resuspended in ice cold PBS. A total of 75 µL of liquified agarose per condition was transferred onto the slide to create a base layer. This base layer was solidified by transferring the slide to 4°C for 15 min. Afterwards, 10 µL of the above‐mentioned cell suspension in PBS were mixed with 90 µL of agarose. A total of 75 µL of this was added to each base layer, respectively. This layer was also allowed to solidify at 4°C for 15 min. The slide was then transferred to a small basin which contained pre‐chilled lysis buffer (14.6 g NaCl, 20 mL EDTA solution, 10 mL lysis solution, 10 mL DMSO, 60 mL deionized H2O), where it remained for 45 min in the dark at 4°C. The lysis buffer was then aspirated and exchanged with a pre‐chilled alkaline solution (1.2 g NaOH, 0.2 mL EDTA solution, 100 mL deionized H2O), where it remained for further 30 min in the dark at 4°C. The slide was then transferred to a horizontal electrophoresis chamber which was filled with cold alkaline solution. The electrophoresis conditions were set to 1.5 V/cm and 300 mA for 20 min. After the electrophoresis, the slide was transferred into a small basin containing pre‐chilled, deionized H2O. After 2 min, the water was aspirated and this washing step was repeated twice more. After the final rinse, the slide was submerged in 70% ethanol for 5 min. Once the slide has dried, 100 µL of diluted Vista Green DNA Dye was added to each well. After 15 min of incubation, the slides were analyzed on an IX‐70 epifluorescence microscope (Olympus, Shinjuku, Japan) using a FITC filter.

[4] = tested on: surface calreticulin on A2780wt cells; assay: Immunofluorescent surface calreticulin staining, A2780wt; conditions: w/o BGs, 25 µM, 24 h
Method: as §1, §2

A2780wt cells [5] = assay: Cellular platinum accumulation (HR CS AAS); conditions: free complex, 25 µM, 24 h
Method: Stock solutions of the platinum complexes in DMF were freshly prepared and the stocks for the loaded compounds were freshly thawed. […] Cell pellets were prepared by removing the medium, washing twice with PBS, and detaching the cells with accutase (GE Healthcare, Chicago, IL, USA). Subsequently, cells were pelleted by centrifugation (4°C, 380g, 3 min). Each pellet was twice washed with PBS and then stored at −20°C until further analyses.
Cellular accumulation was quantified by measuring the total platinum content using HR CS AAS. […] The resulting lysates were analyzed using AAS at the wavelength λ = 265.9450 nm with a high resolution continuous source (HR CS) spectrometer (contrAA 700; Analytik Jena, Jena, Germany). The ASpect CS software (version 2.3.1.0; Analytik Jena, Jena, Germany) was used to handle the spectrometer. The graphite furnace (GF) sub‐technique was used for this. In the latter, atomization takes place electrothermally in pyrolytically coated graphite tubes bearing an integrated platform (Analytik Jena, Jena, Germany). The GF program is outlined in Supporting Information S2: Table S8. The samples stored in polystyrene vials (0.5 mL; Gesellschaft für Analysentechnik, Salzwedel, Germany) were injected onto this platform employing an MPE 60 autosampler (Analytik Jena, Jena, Germany). As the purge and the protective gas served argon (Alphagaz 1, 99.999%, Air Liquide, Düsseldorf, Germany). The mean integrated absorbance of three injections was adduced during all measurements. […] As the degree of cellular accumulation is indicated as amount of compound (pmol) in the cell lysate relative to its protein mass (mg), the protein content of each sample was determined. Therefore, the method described by Bradford was used. […] Each 20 µL of either albumin standards or the cell lysates were pipetted into a 96‐well plate (Sarstedt, Nürmbrecht, Germany), followed by adding 200 µL of Bradford's reagent (Roti‐Nanoquant, Carl Roth, Karlsruhe, Germany; diluted 1:5 with ultrapure water). After incubating (5 min, rt), the absorbance (λ = 595 nm) was read with a microplate reader (Tecan Infinite M 1000 Pro, Männedorf, Switzerland). All calibration standards and lysates were measured in duplicates.

Molecule | x‐fold intensity of surface calreticulin compared to untreated cells [1] [x‐fold] | x-fold caspase-3 induction compared to untreated cells [2] [x-fold] | intracellular DNA damage (comet formation) (A2780wt cells [3]) | x‐fold intensity of surface calreticulin compared to untreated cells [4] [x‐fold] | uptake into A2780wt cells (total cellular platinum content) (A2780wt cells [5]) [pmol/µg]
CCN1[C]([Pt]([O]C(C)=O)([O]C(C)=O)[SH](C)(C)=O)N(CC)c2ccccc21 [Compound 1, (SP‐4‐2)‐Diacetato(1,3‐diethylbenzimidazol‐2‐ylidene)(dimethylsulfoxide)platinum(II)] | 1.18 ± 0.37 | 2.64 ± 0.32 | induced intracellular DNA damage | 1.09 ± 0.00 | 1.1
CCN1[C]([Pt]([O]C(=O)C(Cl)Cl)([O]C(=O)C(Cl)Cl)[SH](C)(C)=O)N(CC)c2ccccc21 [Compound 3, (SP‐4‐2)‐Bis(dichloroacetato)(1,3‐diethylbenzimidazol‐2‐ylidene)(dimethylsulfoxide)platinum(II)] | 0.75 ± 0.28 | 3.06 ± 1.20 | induced intracellular DNA damage | 1.50 ± 0.17 | 1.17
(SP‐4‐2)‐Bis(dichloroacetato)bis(1,3‐diethylbenzimidazol‐2‐ylidene)platinum(II) [Compound 4] | 1.13 ± 0.36 | 1.89 ± 0.03 | induced intracellular DNA damage | 1.37 ± 0.24 | 1.87
(SP‐4‐2)‐Diacetatobis(1,3‐diethylbenzimidazol‐2‐ylidene)platinum(II) [Compound 2] | 1.02 ± 0.05 | 0.39 ± 0.13 | did not show any evidence of comet formation | 1.07 ± 0.12 | 0.82
